# Measured values taken from BindingDB's records for doi:10.1021/acsmedchemlett.6b00381 (Mossakowski Medical Research Centre Polish Academy of …, 2017).
# Target: Substance-P receptor (Rattus norvegicus, UniProt P14600)
# Experiment: ChEBML_1632341
# Procedure: Displacement of [Leu-3,4,5-3H(N)]-Substance P from NK1 receptor in rat brain homogenate measured after 60 mins by microbeta scintillation counting analysis
# Chain of Substance-P receptor (P14600 whole entry): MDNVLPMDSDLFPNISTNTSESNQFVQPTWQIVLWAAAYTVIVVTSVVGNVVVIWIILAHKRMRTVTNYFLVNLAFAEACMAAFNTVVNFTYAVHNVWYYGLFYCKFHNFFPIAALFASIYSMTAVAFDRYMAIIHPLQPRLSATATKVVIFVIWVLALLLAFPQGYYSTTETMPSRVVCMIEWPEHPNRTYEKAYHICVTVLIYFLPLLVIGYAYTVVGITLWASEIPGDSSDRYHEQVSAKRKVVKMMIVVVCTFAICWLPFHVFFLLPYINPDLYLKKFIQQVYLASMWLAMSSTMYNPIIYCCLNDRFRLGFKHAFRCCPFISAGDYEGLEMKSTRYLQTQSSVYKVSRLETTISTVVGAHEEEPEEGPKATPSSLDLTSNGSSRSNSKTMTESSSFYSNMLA
smiles,measurement,value
C[C@@H](NC(=O)[C@@H](N)Cc1ccc(O)cc1)C(=O)NCC(=O)N[C@@H](Cc1ccccc1)C(=O)NN=Cc1cc(C(F)(F)F)cc(C(F)(F)F)c1,IC50,4.2 nM
